Assay results from US5643954A, “Method of preventing and alleviating stress in a healthy mammal in need thereof” (priority 1993, dated 1997).
Like-named read-outs stand apart in the source and are kept apart here.

How the values were obtained:
[1] = system: phenamine stereotypy; conditions: M ± m
[2] = orientation motive activity of mice, automated registration of movements; format: in vivo, mice (male); conditions: for Number of movements in 10 min in register: M ± m
Experimental: (§1) Experiments were conducted in vivo on male mice weighing 18-22 g and male rats weighing 200-250 g, as well as in vitro on the isolated organs: a guinea pig's ileum and a rat's seminal effervesces.

[3] = system: EEG; conditions: for Biopotential slow form amplitude / Expression of biopotential slow forms / Expression of pathologically acute waves and peaked oscillation / Expression of α-rhythm / Paroxysmal bursts / α-frequency / α-oscillation amplitude / β-rhythm amplitude / β-rhythm expression / β-rhythm, low-frequency expression: M
[4] = system: apomorphine stereotypy; conditions: M ± m
[5] = system: hexenal sleep; experiment: comparative interaction test with hexenal, rats; format: in vivo; conditions: M ± m
[6] = after dose, M ± m
[7] = system: arecoline hyperkinesia; conditions: M ± m
[8] = system: bioelectric activity of rats' brain; experiment: spontaneous bioelectrical activity of rats' brain (EEG, implanted electrodes); format: in vivo; parameters: Amplitude, slow activ. / Amplitude, fast activ.: unit not given here; conditions: for Amplitude, fast activ. / Amplitude, slow activ.: M ± m
[9] = system: acute stress action (electric painful influence)
Source text: The test and control young rats were subjected to a single electric painful influence in a matter of a second ("electric floor" 59 hertz, 35 v). […] Sixty minutes after, the behaviour of animals was investigated in the "open field" test.

[10] = system: strychnine effects; conditions: for Threshold doses Strychnine 0,01% solution, death of animal / Threshold doses Strychnine 0,01% solution, start of twitch: M ± m
[11] = system: EEG; conditions: M
[12] = taken once or regularly (14 days)
[13] = system: guinea pig's ileum (acetylcholine); conditions: for Amplitude of concentration in % to control / Amplitude of concentration: acetylcholine; for Amplitude of concentration: M ± m
Experimental: as §1

[14] = system: rat's seminal effervesce (adrenaline); conditions: for Amplitude of concentration in % to control / Amplitude of concentration: adrenaline; for Amplitude of concentration: M ± m
Experimental: as §1

[15] = taken 30 minutes before an exam
[16] = 200 mg/kg single administration

With aminoacetic acid [claimed preparation] the “phenamine duration of stereotypy” value ([1]; 2 mg/kg) was 65.0 ± 2.5 min, the phenamine latent period ([1]; 2 mg/kg) was 110.0 ± 2.6 s and the “phenamine duration of stereotypy” value ([1]; 40 mg/kg) was 62.0 ± 1.6 min. For the same substance, the phenamine latent period ([1]; 40 mg/kg) was 115.0 ± 1.5 s, the “phenamine duration of stereotypy” value ([1]; 200 mg/kg) was 62.0 ± 2.1 min and the phenamine latent period ([1]; 200 mg/kg) was 120.0 ± 2.8 s. The “Number of movements in 10 min in register” value (“Number of movements” for short) ([2]; 2 mg/kg intraperitoneally) was 371 ± 56, the “Number of movements” value ([2]; 20 mg/kg intraperitoneally) was 365 ± 79 and the “Number of movements” value ([2]; 40 mg/kg into stomach) was 439 ± 70. For the same substance, the “Number of movements” value ([2]; 40 mg/kg intraperitoneally) was 324 ± 56, the “Number of movements” value ([2]; 80 mg/kg intraperitoneally) was 398 ± 48 and the “Number of movements” value ([2]; 200 mg/kg intraperitoneally) was 275 ± 23. The motor activity ([2]; in words) was “reduction of animals' motor activity”, the “EEG variation a)” value ([3]; 1,5 hrs after a dose) was 2.89 arbitrary units and the “EEG variation b)” value ([3]; 1,5 hrs after a dose) was 2.79 arbitrary units. The “Biopotential slow form amplitude” value ([3]; 1,5 hrs after a dose) was 41.40 mV, the “Expression of biopotential slow forms” value ([3]; 1,5 hrs after a dose) was 2.85 arbitrary units and the “Expression of pathologically acute waves and peaked oscillation” value ([3]; 1,5 hrs after a dose) was 1.71 arbitrary units. For the same substance, the “Expression of α-rhythm” value ([3]; 1,5 hrs after a dose) was 4.89 arbitrary units, the Paroxysmal bursts ([3]; 1,5 hrs after a dose) was 2.21 arbitrary units and the α-frequency ([3]; 1,5 hrs after a dose) was 10.60 Hertz. The α-oscillation amplitude ([3]; 1,5 hrs after a dose) was 105.70 mV, the β-rhythm amplitude ([3]; 1,5 hrs after a dose) was 13.60 mV and the β-rhythm expression ([3]; 1,5 hrs after a dose) was 2.14 arbitrary units. The “β-rhythm, low-frequency expression” value ([3]; 1,5 hrs after a dose) was 1.21 arbitrary units, the “EEG variation a)” value ([3]; after two-week course) was 3.00 arbitrary units and the “EEG variation b)” value ([3]; after two-week course) was 2.42 arbitrary units. The “Biopotential slow form amplitude” value ([3]; after two-week course) was 44.20 mV, the “Expression of biopotential slow forms” value ([3]; after two-week course) was 3.60 arbitrary units and the “Expression of pathologically acute waves and peaked oscillation” value ([3]; after two-week course) was 1.93 arbitrary units. For the same substance, the “Expression of α-rhythm” value ([3]; after two-week course) was 4.54 arbitrary units, the Paroxysmal bursts ([3]; after two-week course) was 3.00 arbitrary units and the α-frequency ([3]; after two-week course) was 10.40 Hertz. It also gave a α-oscillation amplitude ([3]; after two-week course) of 95.00 mV, a β-rhythm amplitude ([3]; after two-week course) of 16.40 mV and a β-rhythm expression ([3]; after two-week course) of 2.07 arbitrary units. The “β-rhythm, low-frequency expression” value ([3]; after two-week course) was 1.29 arbitrary units, the EEG-based activity ([3]; all examined EEG indicators, in words) was “has nootropic activity” and the “apomorphine duration of stereotypy” value ([4]; 2 mg/kg) was 20.0 ± 0.9 min. The apomorphine latent period ([4]; 2 mg/kg) was 98.0 ± 1.5 s, the “apomorphine duration of stereotypy” value ([4]; 40 mg/kg) was 22.0 ± 0.6 min and the apomorphine latent period ([4]; 40 mg/kg) was 104.0 ± 0.9 s. For the same substance, the “apomorphine duration of stereotypy” value ([4]; 200 mg/kg) was 20.0 ± 0.5 min, the apomorphine latent period ([4]; 200 mg/kg) was 95.5 ± 0.8 s and the Hexanal sleep duration ([5]; 2 mg/kg) was 36.0 ± 1.8 min. The Hexanal sleep duration ([5]; 40 mg/kg) was 32.0 ± 1.9 min, the Hexanal sleep duration ([5]; 200 mg/kg) was 28.0 ± 1.9 min and the “marks exceeding those of the school year” value [15] was 0.5-1 point. For the same substance, the “students noting disappearance of fear and internal discomfort” value [15] was 95%, the “good and excellent marks 4 and 5” value (taken before an exam, chiefly in maths) was 80% and the AMo/Δx ([6]; after testing) was 94.8 ± 4.1. It also gave an Amo ([6]; after testing) of 36.4 ± 2.2%, a Mo ([6]; after testing) of 0.74 ± 0.03 s and a Δx ([6]; after testing) of 0.38 ± 0.01 s. It also gave an AMo/Δx ([6]; prior to tests) of 83.8 ± 4.0, an Amo ([6]; prior to tests) of 32.0 ± 2.0% and a Mo ([6]; prior to tests) of 0.75 ± 0.03 s. The Δx ([6]; prior to tests) was 0.39 ± 0.01 s, the “Arecoline hyperkinesia, duration” value ([7]; 2 mg/kg) was 16.5 ± 0.4 min and the “Arecoline hyperkinesia, duration” value ([7]; 20 mg/kg) was 14.8 ± 1.2 min. For the same substance, the “Arecoline hyperkinesia, duration” value ([7]; 40 mg/kg) was 13.8 ± 0.9 min, the “Arecoline hyperkinesia, duration” value ([7]; 80 mg/kg) was 14.5 ± 0.9 min and the “Arecoline hyperkinesia, duration” value ([7]; 200 mg/kg) was 15.6 ± 0.8 min. The “Amplitude, fast activ.” value ([8]; 2 mg/kg) was 325 ± 24, the “Amplitude, slow activ.” value ([8]; 2 mg/kg) was 315 ± 14 and the “Maximal effect appearance time from the start of experiment” value ([8]; 40 mg/kg) was 70 min. For the same substance, the Nature of effect ([8]; 40 mg/kg) was “episodic”, the “Nature of effect, episodes” value ([8]; 40 mg/kg) was 1-2 episodes per hr and the “synchronizing effect on encephalogram” value ([8]; 40 mg/kg intraperitoneally) was “tends to call for a synchronizing effect on an encephalogram”. The “Amplitude, fast activ.” value ([8]; 40 mg/kg) was 243 ± 10, the “Amplitude, slow activ.” value ([8]; 40 mg/kg) was 380 ± 21 and the “Intersection of a floor's center” value ([9]; 2 mg/kg on tongue root 20 min before electric painful influence) was 0. The Defecation ([9]; 2 mg/kg on tongue root 20 min before electric painful influence, M ± m) was 0.4 ± 0.28, the stress-protective effect ([9]; preliminarily administered) was “displays a stress-protective effect and considerably reduces on-stress-dependent excitement manifestations” and the “Threshold doses Strychnine 0,01% solution, death of animal” value ([10]; 2 mg/kg single administration) was 0.21 ± 0.007 mL. For the same substance, the “Threshold doses Strychnine 0,01% solution, start of twitch” value ([10]; 2 mg/kg single administration) was 0.17 ± 0.008 mL, the “Threshold doses Strychnine 0,01% solution, death of animal” value ([10]; 40 mg/kg single administration) was 0.21 ± 0.005 mL and the “Threshold doses Strychnine 0,01% solution, start of twitch” value ([10]; 40 mg/kg single administration) was 0.18 ± 0.007 mL. The “Threshold doses Strychnine 0,01% solution, death of animal” value ([10]; 80 mg/kg single administration) was 0.18 ± 0.006 mL, the “Threshold doses Strychnine 0,01% solution, start of twitch” value ([10]; 80 mg/kg single administration) was 0.17 ± 0.005 mL and the “Threshold doses Strychnine 0,01% solution, death of animal” value [10, 16] was 0.19 ± 0.006 mL. The “Threshold doses Strychnine 0,01% solution, start of twitch” value [10, 16] was 0.15 ± 0.008 mL, the “influence on strychnine effects” value ([10]; in words) was “does not practically influence said strychnine effects” and the “Attention mobilization: reaction expression” value ([11]; 1,5 hrs after a dose) was 2.82 arbitrary units. For the same substance, the “Eye opening-closing reaction: biopotential amplitude decline” value ([11]; 1,5 hrs after a dose) was 25.40 mV, the “Eye opening-closing reaction: response” value ([11]; 1,5 hrs after a dose) was 3.71 arbitrary units and the “HV-reaction (test with hyperventilation): reaction expression” value ([11]; 1,5 hrs after a dose) was 2.07 arbitrary units. For the same substance, the “HV-reaction: after-effect” value ([11]; 1,5 hrs after a dose) was 12.40 s, the “Presence of errors in count” value ([11]; 1,5 hrs after a dose) was 28.60% and the “Repeated response to eye opening-closing: reaction expression” value ([11]; 1,5 hrs after a dose) was 3.73 arbitrary units. The “Sonic signal count: reaction expression” value ([11]; 1,5 hrs after a dose) was 3.64 arbitrary units, the “Sonic signal count: reaction suppression” value ([11]; 1,5 hrs after a dose) was 5.79 sonic signals and the “Attention mobilization: reaction expression” value ([11]; after two-week course) was 3.21 arbitrary units. The “Eye opening-closing reaction: biopotential amplitude decline” value ([11]; after two-week course) was 23.60 mV, the “Eye opening-closing reaction: response” value ([11]; after two-week course) was 3.07 arbitrary units and the “HV-reaction (test with hyperventilation): reaction expression” value ([11]; after two-week course) was 2.64 arbitrary units. The “HV-reaction: after-effect” value ([11]; after two-week course) was 20.70 s, the “Presence of errors in count” value ([11]; after two-week course) was 33.00% and the “Repeated response to eye opening-closing: reaction expression” value ([11]; after two-week course) was 3.00 arbitrary units. The “Sonic signal count: reaction expression” value ([11]; after two-week course) was 3.79 arbitrary units, the “Sonic signal count: reaction suppression” value ([11]; after two-week course) was 6.57 sonic signals and the “weariness, irritation and internal unrest” value [12] was “weariness, irritation and internal unrest significantly abate”. The “Amplitude of concentration in % to control” value (shortened to “Amplitude … in % to control”) ([13]; 1·10^-4 M, 100 µM) was 89%, the Amplitude of concentration ([13]; 1·10^-4 M) was 97.0 ± 1.5 mm and the “Amplitude … in % to control” value ([13]; 1·10^-5 M, 10 µM) was 99%. The Amplitude of concentration ([13]; 1·10^-5 M) was 105.0 ± 1.8 mm, the “Amplitude … in % to control” value ([13]; 1·10^-6 M, 1 µM) was 109% and the Amplitude of concentration ([13]; 1·10^-6 M) was 116.0 ± 2.4 mm. The antagonism with acetylcholine ([13]; in words) was “without discovering antagonism with said acetylcholine”, the “Amplitude … in % to control” value ([14]; 1·10^-4 M, 100 µM) was 65,5% and the Amplitude of concentration ([14]; 1·10^-4 M) was 45.0 ± 0.6 mm. The “Amplitude … in % to control” value ([14]; 1·10^-5 M, 10 µM) was 83%, the adrenoblocking action ([14]; 1·10^-5 and 1·10^-4 M) was “weak and mild adrenoblocking action” and the “Amplitude … in % to control” value ([14]; 1·10^-6 M, 1 µM) was 94%. The Amplitude of concentration ([14]; 1·10^-6 M) was 65.0 ± 1.2 mm and the “contracting responses to adrenaline” value ([14]; in words) was “suppresses the contracting responses”.
